{"source": "patent US20260232674A1", "about": "“METHODS OF TREATING HIDRADENITIS SUPPURATIVA” (Alumis Inc., priority 2023, published 2026)", "key": {"[1]": {"experiment": "IFN gene expression in healthy volunteers after 7 days 40 mg Compound A twice daily versus placebo", "format": "in vivo", "details": "gene CETP, 40 mg twice daily, versus placebo, healthy volunteers", "protocol": "(§1) A study was conducted to assess IFN1 gene expression in healthy volunteers administered a regimen of Compound A. The data set consists of 48 subjects with transcriptome-wide RNA-sequencing data collected for each subject per time-point. […] […] To assess potentially off target effects, a secondary transcriptome-wide analysis was performed. Multiple test correction was completed using a Benjamini-Hochberg cutoff of 0.05 within the primary and secondary analyses separately."}, "IFN gene expression": {"system": "IFN gene expression", "experiment": "IFN gene expression in healthy volunteers after 7 days 40 mg Compound A twice daily versus placebo", "format": "in vivo", "protocol": "as §1"}, "[2]": {"system": "transcriptome-wide gene expression", "experiment": "Secondary transcriptome-wide analysis for potentially off target effects, day 14 4 hour post-treatment versus placebo", "format": "in vivo, healthy volunteers", "protocol": "(§2) A study was conducted to assess IFN1 gene expression in healthy volunteers administered a regimen of Compound A. The data set consists of 48 subjects with transcriptome-wide RNA-sequencing data collected for each subject per time-point. For each subject, time points included a pre-dose at day 1, a pre-dose at day 14, and a 4 hour post-day 14 dose. A Wald test was used to assess the association of the various doses at post-dose day 14 versus placebo. To assess potentially off target effects, a secondary transcriptome-wide analysis was performed. Multiple test correction was completed using a Benjamini-Hochberg cutoff of 0.05 within the primary and secondary analyses separately."}, "IFN1 gene expression": {"system": "IFN1 gene expression", "experiment": "IFN gene set expression (RNA-sequencing) in healthy volunteers, Compound A versus placebo, day 14", "format": "in vivo", "protocol": "as §2\nFor example FIG. 4 and FIG. 5 show dose-dependent median IFN gene expression levels over time for HERC5, IFI27, IFIT1, RSAD2. […] As shown in FIG. 6 and FIG. 7, SIGLEC1 was decreased after a 14-day regimen of treatment with Compound A."}}, "data": [{"smiles": "[2H]C([2H])([2H])CC(=O)c1cnc(NC(=O)C2CC2)cc1Nc1cccc(-c2ncn(C([2H])([2H])[2H])n2)c1OC", "note": "[Compound A, N-(4-((2-Methoxy-3-(1-(methyl-d3)-1H-1,2,4-triazol-3-yl)phenyl)amino)-5-(propanoyl-3,3,3-d3)pyridin-2-yl)cyclopropanecarboxamide]", "values": [{"measurement": "log2FoldChange CETP", "setting": "[1]", "value": 1.503}, {"measurement": "rank of SIGLEC1 among differentially expressed genes, treated versus placebo", "setting": "IFN gene expression; 40 mg twice daily, Table 3", "value": "top differentially expressed gene"}, {"measurement": "log2FoldChange CHRM3", "setting": "IFN gene expression; gene CHRM3, 40 mg twice daily, versus placebo, healthy volunteers", "value": "−1.521"}, {"measurement": "log2FoldChange HJURP", "setting": "IFN gene expression; gene HJURP, 40 mg twice daily, versus placebo, healthy volunteers", "value": 1.007}, {"measurement": "log2FoldChange OSM", "setting": "IFN gene expression; gene OSM, 40 mg twice daily, versus placebo, healthy volunteers", "value": 1.157}, {"measurement": "log2FoldChange SIGLEC1", "setting": "IFN gene expression; gene SIGLEC1, 40 mg twice daily, versus placebo, healthy volunteers", "value": "−3.626"}, {"measurement": "log2FoldChange SOCS3", "setting": "IFN gene expression; gene SOCS3, 40 mg twice daily, versus placebo, healthy volunteers", "value": 1.421}, {"measurement": "log2FoldChange SYN2", "setting": "IFN gene expression; gene SYN2, 40 mg twice daily, versus placebo, healthy volunteers", "value": 2.239}, {"measurement": "log2FoldChange CDNF", "setting": "[2]; gene CDNF, secondary analysis", "value": 1.185}, {"measurement": "log2FoldChange ENSG00000288643", "setting": "[2]; gene ENSG00000288643, secondary analysis", "value": "−1.541"}, {"measurement": "log2FoldChange IFI6", "setting": "[2]; gene IFI6, secondary analysis", "value": "−1.206"}, {"measurement": "log2FoldChange IFIT1", "setting": "[2]; gene IFIT1, secondary analysis", "value": "−1.676"}, {"measurement": "log2FoldChange JPH4", "setting": "[2]; gene JPH4, secondary analysis", "value": "−1.043"}, {"measurement": "log2FoldChange LRP1", "setting": "[2]; gene LRP1, secondary analysis", "value": "−1.314"}, {"measurement": "log2FoldChange LRRC75B", "setting": "[2]; gene LRRC75B, secondary analysis", "value": "−1.205"}, {"measurement": "log2FoldChange MX1", "setting": "[2]; gene MX1, secondary analysis", "value": "−1.438"}, {"measurement": "log2FoldChange SIGLEC1", "setting": "[2]; gene SIGLEC1, secondary analysis", "value": "−3.579"}, {"measurement": "off target associations after multiple test corrections", "setting": "[2]; transcriptome-wide, Table 4", "value": "no significant off target associations"}, {"measurement": "association of Compound A with SIGLEC1 gene expression (Wald test)", "setting": "IFN1 gene expression; after 14 days of treatment versus placebo, Table 2", "value": "significant association"}, {"measurement": "median IFN gene expression levels for HERC5, IFI27, IFIT1, RSAD2", "setting": "IFN1 gene expression; after 14 days, versus placebo, FIG. 4 and FIG. 5, healthy volunteers", "value": "substantial decrease"}, {"measurement": "median gene expression levels for SIGLEC1", "setting": "IFN1 gene expression; after a 14-day regimen, versus placebo, FIG. 6 and FIG. 7, healthy volunteers", "value": "decreased"}, {"measurement": "log2FoldChange CXCL10", "setting": "IFN1 gene expression; gene CXCL10, after 14 days of treatment versus placebo, healthy volunteers", "value": "−1.589"}, {"measurement": "log2FoldChange EPSTI1", "setting": "IFN1 gene expression; gene EPSTI1, after 14 days of treatment versus placebo, healthy volunteers", "value": "−0.2266"}, {"measurement": "log2FoldChange IFI27", "setting": "IFN1 gene expression; gene IFI27, after 14 days of treatment versus placebo, healthy volunteers", "value": "−1.082"}, {"measurement": "log2FoldChange IFI44", "setting": "IFN1 gene expression; gene IFI44, after 14 days of treatment versus placebo, healthy volunteers", "value": "−0.3773"}, {"measurement": "log2FoldChange IFI44L", "setting": "IFN1 gene expression; gene IFI44L, after 14 days of treatment versus placebo, healthy volunteers", "value": "−1.043"}, {"measurement": "log2FoldChange IFIT1", "setting": "IFN1 gene expression; gene IFIT1, after 14 days of treatment versus placebo, healthy volunteers", "value": "−1.676"}, {"measurement": "log2FoldChange ISG15", "setting": "IFN1 gene expression; gene ISG15, after 14 days of treatment versus placebo, healthy volunteers", "value": "−0.8721"}, {"measurement": "log2FoldChange ISG20", "setting": "IFN1 gene expression; gene ISG20, after 14 days of treatment versus placebo, healthy volunteers", "value": 0.08851}, {"measurement": "log2FoldChange MX1", "setting": "IFN1 gene expression; gene MX1, after 14 days of treatment versus placebo, healthy volunteers", "value": "−1.438"}, {"measurement": "log2FoldChange OAS1", "setting": "IFN1 gene expression; gene OAS1, after 14 days of treatment versus placebo, healthy volunteers", "value": "−0.1127"}, {"measurement": "log2FoldChange OAS2", "setting": "IFN1 gene expression; gene OAS2, after 14 days of treatment versus placebo, healthy volunteers", "value": "−0.008935"}, {"measurement": "log2FoldChange OAS3", "setting": "IFN1 gene expression; gene OAS3, after 14 days of treatment versus placebo, healthy volunteers", "value": "−0.7134"}, {"measurement": "log2FoldChange RSAD2", "setting": "IFN1 gene expression; gene RSAD2, after 14 days of treatment versus placebo, healthy volunteers", "value": "−0.4713"}, {"measurement": "log2FoldChange SIGLEC1", "setting": "IFN1 gene expression; gene SIGLEC1, after 14 days of treatment versus placebo, healthy volunteers", "value": "−3.579"}, {"measurement": "log2FoldChange SPATS2L", "setting": "IFN1 gene expression; gene SPATS2L, after 14 days of treatment versus placebo, healthy volunteers", "value": "−0.5117"}]}]}
